# Laboratory results from ChEMBL document CHEMBL1201862, “PubChem BioAssay data set” (2004).
# The source made the active and inactive calls.
# Experiments:
# [1] = viability loss in HeLa cells – cytotoxicity control for MgcRacGAP inhibitor project, dose response (AID 624300); assay type: functional
# [2] = molecular target: T1, Rac GTPase-activating protein 1 (Homo sapiens, UniProt Q9H0H5); test: blockers of MgcRacGAP-driven Rac1 GTP hydrolysis – biochemical, ADP Hunter fluorescence, primary and confirmatory, confirmation (AID 624330); assay type: functional
# T1 sequence (Q9H0H5 whole entry): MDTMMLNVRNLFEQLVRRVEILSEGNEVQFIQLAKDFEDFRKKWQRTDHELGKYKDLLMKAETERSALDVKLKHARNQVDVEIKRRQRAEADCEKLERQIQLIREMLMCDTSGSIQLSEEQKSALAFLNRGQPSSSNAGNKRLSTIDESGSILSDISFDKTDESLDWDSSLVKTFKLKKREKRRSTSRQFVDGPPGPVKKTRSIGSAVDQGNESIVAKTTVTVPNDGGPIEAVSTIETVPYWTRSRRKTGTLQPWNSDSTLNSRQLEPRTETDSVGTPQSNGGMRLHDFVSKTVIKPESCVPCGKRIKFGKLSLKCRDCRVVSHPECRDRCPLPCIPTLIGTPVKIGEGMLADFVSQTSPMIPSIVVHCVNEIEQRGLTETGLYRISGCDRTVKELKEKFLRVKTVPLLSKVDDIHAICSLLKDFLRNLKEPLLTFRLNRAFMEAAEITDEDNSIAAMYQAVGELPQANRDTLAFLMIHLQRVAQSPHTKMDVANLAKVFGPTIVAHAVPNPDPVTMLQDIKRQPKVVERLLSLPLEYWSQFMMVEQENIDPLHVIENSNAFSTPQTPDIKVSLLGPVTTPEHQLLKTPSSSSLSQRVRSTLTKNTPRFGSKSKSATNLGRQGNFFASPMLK
# [3] = molecular target: T2, Sentrin-specific protease 6 (Homo sapiens, UniProt Q9GZR1); assay type: functional;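 note: Luminescence-based dose-response confirmatory assay of SENP6 inhibition, following up an ultra-high-throughput screen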
# T2 sequence (Q9GZR1 whole entry): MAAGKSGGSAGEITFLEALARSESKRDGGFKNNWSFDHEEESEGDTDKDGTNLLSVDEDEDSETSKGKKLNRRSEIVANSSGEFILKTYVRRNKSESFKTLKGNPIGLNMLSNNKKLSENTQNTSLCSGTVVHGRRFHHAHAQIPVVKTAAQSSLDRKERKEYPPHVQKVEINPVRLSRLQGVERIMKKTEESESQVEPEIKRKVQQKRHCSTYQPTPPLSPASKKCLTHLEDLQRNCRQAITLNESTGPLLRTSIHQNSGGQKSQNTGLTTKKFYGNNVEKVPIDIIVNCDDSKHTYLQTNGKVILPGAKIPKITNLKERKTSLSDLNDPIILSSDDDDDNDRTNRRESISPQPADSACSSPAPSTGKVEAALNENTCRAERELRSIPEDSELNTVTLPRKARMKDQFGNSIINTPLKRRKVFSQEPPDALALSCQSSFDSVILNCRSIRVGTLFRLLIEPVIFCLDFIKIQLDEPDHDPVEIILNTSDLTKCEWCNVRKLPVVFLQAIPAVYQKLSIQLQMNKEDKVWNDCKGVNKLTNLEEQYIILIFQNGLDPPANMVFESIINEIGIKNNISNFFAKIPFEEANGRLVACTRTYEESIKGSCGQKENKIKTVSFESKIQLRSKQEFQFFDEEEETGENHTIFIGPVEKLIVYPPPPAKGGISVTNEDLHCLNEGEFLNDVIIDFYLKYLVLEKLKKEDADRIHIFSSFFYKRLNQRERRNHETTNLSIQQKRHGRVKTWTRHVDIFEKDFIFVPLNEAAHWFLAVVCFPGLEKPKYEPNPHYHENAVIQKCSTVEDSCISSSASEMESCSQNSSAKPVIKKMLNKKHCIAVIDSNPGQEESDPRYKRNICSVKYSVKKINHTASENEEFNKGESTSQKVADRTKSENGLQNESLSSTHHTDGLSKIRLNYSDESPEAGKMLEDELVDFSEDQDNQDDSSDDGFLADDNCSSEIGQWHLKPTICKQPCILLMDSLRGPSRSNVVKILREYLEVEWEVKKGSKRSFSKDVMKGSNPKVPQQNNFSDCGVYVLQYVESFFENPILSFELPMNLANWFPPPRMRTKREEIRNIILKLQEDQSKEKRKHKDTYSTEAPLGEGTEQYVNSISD
# Streptokinase A = molecular target: T3, Streptokinase A (Streptococcus pyogenes serotype M1, UniProt P10520); test: viability-normalized secreted streptokinase activity reduction – plasminogen activation absorbance, OD405, dose response (AID 1914); assay type: functional, Streptococcus pyogenes M1 GAS;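 note: secreted streptokinase activity via plasminogen activation per viability signal from cell pellet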
# T3 sequence (P10520 whole entry): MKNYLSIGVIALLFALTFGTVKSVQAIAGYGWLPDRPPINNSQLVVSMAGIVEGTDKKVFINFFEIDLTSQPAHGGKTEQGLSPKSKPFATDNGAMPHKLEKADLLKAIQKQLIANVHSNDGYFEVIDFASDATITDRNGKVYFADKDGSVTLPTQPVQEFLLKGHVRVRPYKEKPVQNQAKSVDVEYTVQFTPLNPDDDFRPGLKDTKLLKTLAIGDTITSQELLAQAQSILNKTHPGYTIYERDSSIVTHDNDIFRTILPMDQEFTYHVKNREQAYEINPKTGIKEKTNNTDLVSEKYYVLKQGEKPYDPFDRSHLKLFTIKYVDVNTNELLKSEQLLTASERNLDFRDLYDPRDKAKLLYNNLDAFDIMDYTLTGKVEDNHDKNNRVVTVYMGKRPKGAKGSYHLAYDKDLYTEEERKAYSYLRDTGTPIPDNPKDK
# Streptococcus = test: GAS UMAA2166 growth inhibition – luminescence, BacTiterGlo, counter-screen for streptokinase expression inhibitor project, dose response (AID 1915); assay type: functional, organism-based;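 note: potency for reduction of bacterial viability or growth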
# [4] = test system: Streptococcus sp. 'group A'; test: Streptococcus pyogenes SK(-)GAS viability under kanamycin – luminescence, BacTiterGlo, confirmation, counter-screen for streptokinase expression inhibitor project, dose response (AID 1900); assay type: functional, organism-based
# [5] = molecular target: T4, Sentrin-specific protease 8 (Homo sapiens, UniProt Q96LD8); assay type: functional;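 note: luminescence read-out of SENP8 inhibition, dose-response confirmation following an ultra-high-throughput screen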
# T4 sequence (Q96LD8 whole entry): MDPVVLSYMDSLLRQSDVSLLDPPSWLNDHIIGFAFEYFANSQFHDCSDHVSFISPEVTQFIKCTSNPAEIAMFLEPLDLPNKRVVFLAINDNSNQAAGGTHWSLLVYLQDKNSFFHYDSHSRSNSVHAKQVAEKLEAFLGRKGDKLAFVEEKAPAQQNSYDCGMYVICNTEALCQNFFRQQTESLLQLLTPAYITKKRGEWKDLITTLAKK
# [6] = molecular target: T5, Sentrin-specific protease 7 (Homo sapiens, UniProt Q9BQF6); assay type: functional;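 note: Luminescence-based dose-response confirmation of ultra-high-throughput screening hits, measuring inhibition of SENP7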
# T5 sequence (Q9BQF6 whole entry): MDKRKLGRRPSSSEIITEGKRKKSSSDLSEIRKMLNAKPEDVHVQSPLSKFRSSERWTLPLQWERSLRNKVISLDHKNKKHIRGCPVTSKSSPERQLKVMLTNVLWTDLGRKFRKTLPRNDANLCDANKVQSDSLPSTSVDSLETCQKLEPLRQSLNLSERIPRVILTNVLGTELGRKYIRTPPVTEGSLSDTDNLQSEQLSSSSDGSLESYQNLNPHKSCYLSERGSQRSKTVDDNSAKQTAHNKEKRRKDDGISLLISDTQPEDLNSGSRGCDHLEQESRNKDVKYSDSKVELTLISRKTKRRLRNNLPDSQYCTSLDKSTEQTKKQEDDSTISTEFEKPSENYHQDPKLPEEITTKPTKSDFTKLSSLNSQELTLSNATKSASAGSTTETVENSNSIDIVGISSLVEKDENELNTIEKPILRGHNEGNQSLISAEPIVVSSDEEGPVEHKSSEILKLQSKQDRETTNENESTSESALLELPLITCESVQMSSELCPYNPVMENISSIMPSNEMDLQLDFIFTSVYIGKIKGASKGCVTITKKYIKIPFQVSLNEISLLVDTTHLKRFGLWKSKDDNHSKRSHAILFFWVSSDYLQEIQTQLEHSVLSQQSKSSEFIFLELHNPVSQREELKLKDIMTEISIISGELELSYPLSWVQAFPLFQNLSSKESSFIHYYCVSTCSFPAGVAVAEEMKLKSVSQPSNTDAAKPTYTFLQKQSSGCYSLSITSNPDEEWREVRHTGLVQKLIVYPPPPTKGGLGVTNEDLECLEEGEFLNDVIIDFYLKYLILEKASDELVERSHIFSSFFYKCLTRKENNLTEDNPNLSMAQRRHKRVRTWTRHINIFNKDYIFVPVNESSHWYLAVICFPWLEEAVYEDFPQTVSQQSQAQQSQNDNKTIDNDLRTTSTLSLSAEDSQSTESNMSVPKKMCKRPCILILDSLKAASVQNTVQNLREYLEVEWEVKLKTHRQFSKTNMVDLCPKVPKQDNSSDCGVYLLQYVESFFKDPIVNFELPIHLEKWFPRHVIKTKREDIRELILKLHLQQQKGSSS
# Caspase-3 = molecular target: T6, Caspase-3 (Homo sapiens, UniProt P42574); assay type: functional;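 note: Dose-response selectivity test against caspase-3 for candidate inhibitors of sentrin-specific proteases (SENPs)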
# T6 sequence (P42574 whole entry): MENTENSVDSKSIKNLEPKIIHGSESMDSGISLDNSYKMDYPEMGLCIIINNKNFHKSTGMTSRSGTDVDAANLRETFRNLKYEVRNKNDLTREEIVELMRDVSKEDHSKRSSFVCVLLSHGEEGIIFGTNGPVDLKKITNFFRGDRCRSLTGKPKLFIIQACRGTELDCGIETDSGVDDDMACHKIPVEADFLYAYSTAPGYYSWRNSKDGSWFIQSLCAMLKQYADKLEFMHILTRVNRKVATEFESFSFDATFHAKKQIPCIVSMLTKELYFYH
# [7] = viability of uninfected HEp-2 cells – cell-based, HTS, cytotoxicity control for RSV inhibitor project, dose response (AID 2410); assay type: functional; settings: human respiratory syncytial virus
# [8] = HIV-1 AD8 envelope cell-cell fusion blockers – cherry-pick, dose response (AID 652062); assay type: functional, cell-based;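 note: luciferase signal from cell-cell fusion driven by HIV-1 clade B AD8 Env; potency is for inhibitors of fusion seen as a drop in luminescence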
# [9] = off-target signal loss in HeLa-CEM21 co-culture – HeLa F-luc CTL cells, cherry-picked, counter-screen for HIV-1 Env fusion inhibitor project, dose response (AID 652040); assay type: functional, cell-based;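 note: potency for signal decrease marking cytotoxic or nonspecific inhibition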
# [10] = blockers of HIV-1 envelope-mediated cell-cell fusion – cherry-pick, dose response (AID 652057); assay type: functional, cell-based
# [11] = blockers of HIV-1 ZM109 envelope-driven cell-cell fusion – HeLa effector, CEM target cells, luciferase, cherry-pick, dose response (AID 652058); assay type: functional, cell-based;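 note: luciferase signal from HIV-1 Env mediated cell-cell fusion of effector and target cells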
# Paired box protein Pax-8 = Paired box protein Pax-8 (Homo sapiens, UniProt Q06710); test: PAX8 transcriptional activity inhibition in RMG-I – RMG-I cells, luciferase, cherry-pick, dose response (AID 687027); assay type: functional, cell-based;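 note: luciferase reporter driven by Pax8 target thyroperoxidase promoter measured by SteadyGlo luminescence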
# Sequence of Paired box protein Pax-8 (Q06710 whole entry): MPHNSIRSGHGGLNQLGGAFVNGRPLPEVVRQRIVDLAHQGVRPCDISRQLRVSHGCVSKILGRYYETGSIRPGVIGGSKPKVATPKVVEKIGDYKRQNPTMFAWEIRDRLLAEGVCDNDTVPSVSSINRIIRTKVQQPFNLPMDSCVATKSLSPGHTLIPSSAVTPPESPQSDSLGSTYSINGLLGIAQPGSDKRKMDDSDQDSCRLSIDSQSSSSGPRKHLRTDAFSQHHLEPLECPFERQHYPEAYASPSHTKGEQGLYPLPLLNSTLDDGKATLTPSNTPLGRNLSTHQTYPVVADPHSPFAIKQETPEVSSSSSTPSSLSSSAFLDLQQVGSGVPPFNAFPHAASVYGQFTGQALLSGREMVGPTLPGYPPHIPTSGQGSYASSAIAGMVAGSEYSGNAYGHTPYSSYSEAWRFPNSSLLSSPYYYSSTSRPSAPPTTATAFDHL
# H4 = test: Luminescence Cell-Based Dose Response HTS to Identify Activators of 5'UTR Stem-Loop Driven Prion Protein mRNA Translation in H4 Neuroglioblastoma Cells. [Related pubchem assays: 1829 (Project Summary), 1814 (Primary HTS)]; assay type: functional; settings: Homo sapiens
# [12] = Luminescence Cell-Based Dose Confirmation HTS to Identify Activators of 5'UTR Stem-Loop Driven Alpha-Synuclein mRNA Translation in H4 Neuroglioblastoma Cells. [Related pubchem assays: 1829 (Project Summary), 1814 (Primary HTS)]; assay type: functional
# [13] = Luminescence Cell-Based Dose Response HTS to Identify Activators of Luciferase Translation or Activity in H4 […] Cells. [Related pubchem assays: 1829 (Project Summary), 1814 (Primary HTS)]; assay type: functional
# [14] = T. cruzi growth inhibition in host cells, dose response, cell-based, plate reader, dry powder, set 2 (AID 652275); assay type: functional
structure (smiles),measurement,setting,value
COc1cc(C(C[N+](=O)[O-])c2c(N)n(C)c(=O)n(C)c2=O)ccc1O (stereo not drawn),CC50,[1],80.4 µM (active)
same,IC50,[2],111 µM (active)
CCn1c(SCc2ccccc2Cl)nc2ccccc21,IC50,[3],17.5 µM (active)
same,EC50,Streptokinase A,21.4 µM (active)
same,EC50,Streptococcus,> 150 µM (not active)
same,EC50,[4],16.5 µM (active)
same,IC50,[5],29.3 µM (active)
same,IC50,[6],11.3 µM (active)
same,IC50,Caspase-3,40.6 µM (active)
CCOC(=O)Cc1c(C)c2c(O)cc(O)cc2oc1=O,CC50,[7],47.7 µM (active)
same,IC50,cells,15.1 µM (active)
COc1ccc(NC(=O)Nc2ccc3c(c2)N(C)C(=O)CS3)cc1Cl,AC50,[8],11.8 µM (active)
same,AC50,[9],> 70 µM (inactive)
same,AC50,[10],31.1 µM (active)
same,AC50,[11],3.37 µM (active)
CCOc1ccc(-c2cc(C(=O)O)c3ccccc3n2)c(OCC)c1,CC50,[7],42 µM (active)
same,IC50,cells,19.7 µM (active)
Cc1ccc2c(c1)c1c3n2CCN(CC(N)=O)C3CCC1 (stereo not drawn),AC50,Paired box protein Pax-8,6.82 µM (active)
same,AC50,[9],7.87 µM (active)
COc1cc(-c2ncc3ccccn23)cc(OC)c1OC,CC50,[1],100 µM (active)
same,IC50,[2],123 µM (active)
Cc1cccc(C(=N)NOC(=O)N2c3ccccc3Sc3ccccc32)c1,EC50,H4,> 120 µM (not active)
same,EC50,[12],> 120 µM (not active)
same,CC50,[1],92.6 µM (active)
same,EC50,[13],> 120 µM (not active)
Cc1ccccc1S(=O)(=O)N1C[C@H]2[C@H]3C(=O)N(C4CCCCC4)C(=O)[C@H]3CC(=O)[C@H]2[C@@H]1c1ccc(Cl)cc1,AC50,[8],2.81 µM (active)
same,AC50,[9],1.2 µM (active)
same,AC50,[10],0.396 µM (active)
same,AC50,[11],0.874 µM (active)
COc1ccc(S(=O)(=O)N(C)C[C@H]2OCCCC[C@H](C)Oc3ccc(N(C)C)cc3C(=O)N([C@H](C)CO)C[C@@H]2C)cc1,AC50,[14],9.32 µM (active)
CN(C[C@H](Cc1ccccc1)N(C[C@H](Cc1ccccc1)N(CC1(c2ccccc2)CC1)N=O)N=O)N=O,AC50,[8],7.28 µM (active)
same,AC50,[9],3.05 µM (active)
same,AC50,[10],2.98 µM (active)
same,AC50,[11],3.53 µM (active)
Cc1ccccc1CN(C)C[C@H]1Oc2c(NC(=O)c3ccncc3)cccc2C(=O)N([C@@H](C)CO)C[C@@H]1C,AC50,[14],0.0559 µM (active)
CC(C)N1C[C@@H](CN(C)Cc2ccc(Cl)cc2)Oc2c(NC(=O)c3ccncc3)cc(F)cc2C1=O,AC50,[14],0.00326 µM (active)
CN(C)CC#Cc1cccc(-c2nc(C(=O)N3CCN(Cc4ccccc4)CC3)cc3c2[C@H](CCO)N([S+]([O-])C(C)(C)C)C3)c1 (stereo partly drawn),AC50,[14],6.1 µM (active)
COc1ccc2nc(/C=N/NC(=O)[C@H](C)NC(=O)OC(C)(C)C)ccc2c1,IC50,cells,31.9 µM (active)
